Results published in PMC3549684 (Bioorganic & medicinal chemistry letters, 2012).

Key:
[1] = target: T1, recombinant mouse Lp-PLA2 (Mus musculus, UniProt Q60963); conditions: previously shown; cited from earlier work
T1 sequence (Q60963 22-440): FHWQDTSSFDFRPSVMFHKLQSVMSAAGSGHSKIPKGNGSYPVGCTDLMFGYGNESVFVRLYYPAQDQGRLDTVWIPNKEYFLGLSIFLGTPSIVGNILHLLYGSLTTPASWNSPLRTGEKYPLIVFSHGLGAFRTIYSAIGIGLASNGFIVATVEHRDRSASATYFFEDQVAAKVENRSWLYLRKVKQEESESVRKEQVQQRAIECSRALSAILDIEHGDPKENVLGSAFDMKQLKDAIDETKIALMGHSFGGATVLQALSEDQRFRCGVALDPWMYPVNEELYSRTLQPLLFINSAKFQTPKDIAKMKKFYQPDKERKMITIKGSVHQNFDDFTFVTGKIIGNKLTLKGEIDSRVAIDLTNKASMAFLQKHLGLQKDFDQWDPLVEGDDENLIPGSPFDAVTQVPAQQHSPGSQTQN

[2] = test system: serine hydrolases detected in mouse brain; format: biochemical; conditions: FP-Rh, concentrations up to 10 µM
[3] = test system: ApoE-deficient mice; conditions: cited from earlier work
[4] = test system: human patients with coronary heart disease; conditions: cited from earlier work
[5] = test system: other detected serine hydrolase activities in the PC3 cell proteome; experiment: competitive ABPP with FP-Rh in PC3 cell proteome, selectivity; format: biochemical, human; conditions: FP-Rh probe
[6] = test system: other ~40 serine hydrolases detected in PC3 cells; experiment: ABPP-SILAC of inhibitor-treated PC3 cells in situ, other serine hydrolases; format: cell-based, human; conditions: 100 nM, 4 hours
[7] = test system: diabetic and hypercholesterolemic swine; conditions: cited from earlier work

Structure (SMILES): CCCCCCCCCCC[C@@H](C[C@@H]1OC(=O)[C@H]1CCCCCC)OC(=O)[C@H](CC(C)C)NC=O [THL, tetrahydrolipstatin]
- inhibition of mouse Lp-PLA2 [1]: inhibited

Structure (SMILES): CCN(CC)CCN(Cc1ccc(-c2ccc(C(F)(F)F)cc2)cc1)C(=O)Cn1c(SCc2ccc(F)cc2)nc(=O)c2c1CCC2 [darapladib]
- cross-reactivity with other serine hydrolases [2]: neither darapladib nor JMN4 cross-reacted
- atherosclerotic plaque formation [3]: significantly decrease
- plasma Lp-PLA2 activity [3]: significantly decrease
- atherosclerotic plaque formation [4]: significantly decrease
- plasma Lp-PLA2 activity [4]: significantly decrease
- inhibition of other detected serine hydrolase activities [5]: not inhibited
- effect on other ~40 serine hydrolases in situ [6]: not affecting any
- atherosclerotic plaque formation [7]: significantly decrease
- plasma Lp-PLA2 activity [7]: significantly decrease
